Data as given in US6828309B2, “Use of pentosan polysulfate to treat certain conditions of the prostate” (The United States of America as represented by the …, priority 2000, dated 2004).

Key:
[1] = test system: MMP-2; test: Zymography for metalloproteinases in medium of PPS-treated cells (MMP-2); type: cell-based, human; conditions: PPS 100 μg/μl daily for 5 days; densitometry
Procedure: (§1) Cells in medium containing 20% FBS were pipetted into 6-well plates and were left undisturbed for 24 hours. On day 0, fresh medium containing 20% serum, with and without PPS ([…]), was added PPS was added daily for 5 days. At day 4, the serum in the medium was reduced to 0.1% FBS so as to avoid interference with the assays. At the time of collection, the cellular supernatants were centrifuged to remove cellular debris. Cell layers from the same wells were used to determine cell number.
(§2) Briefly, medium was diluted with 0.1% FBS and 5× Laemmli buffer so that all samples corresponded to an identical cell number. Gelatinases (MMP-9 and MMP-2) in the medium were assayed using 10% zymogram gels (Novex, San Diego, Calif.). Following electrophoresis, the gels were washed for 1 hour in 2.5% SDS and incubated overnight in collagenase as described previously (Boyle et al., Urology 48: 398-405, 1996). The gels were stained with Coomassie Blue and air-dried. To check for non-specific bands, gels were incubated in 50 mM Tris buffer, with the addition of 25 mM EDTA. Quantitative densitometry was performed using NIH image 1.6. […] However MMP-9 increased 235.7+/−50.31 as compared to control cells (see FIG. 3) (p<001).

[2] = test system: type IV collagen; test: Collagen analysis, type IV collagen immunoassay; type: cell-based, human; conditions: PPS-treated vs untreated cells
Procedure: (§3) Another set of cells was plated as described in Example 2 and either treated with PPS or left untreated. The supernatant was centrifuged to remove cellular debris and transferred to a tube containing protease inhibitors (PMSF, NEM, EDTA) and frozen prior to assay.
Type IV collagen: The Assay was performed in a similar way, except the medium and standards were coated on the plate for 8 hours prior to blocking. The concentration of the antibody and the biotinylated goat anti-rabbit IgG was 1:2000. The SAAP was used at 1:1500.
(§4) Type I and type IV (Biodesign) collagen standards were diluted to a final concentration of 0.25-4 ng/well in 0.02 N acetic acid. The curves were linear (r=0.98).

[3] = patients treated for IC; Sand et al. 1997; cited from earlier work
[4] = test system: type I collagen; test: Collagen analysis, type I collagen immunoassay; type: cell-based, human; conditions: PPS-treated vs untreated cells
Procedure: as §3
Type I collagen: 100 μl of medium or human collagen type I standard were incubated for 24 hours in a 96 well plate (Nunc). After 3 washes with 0.05% Tween/PBS, the wells were blocked with 1% BSA/PBS for an additional 24 hours. Following 4 washes with 0.05% Tween/PBS, 50 μl of human collagen type I antibody (1:1000) (Biodesiga, Kennebunk, Me.) was applied for 90 minutes. The plate was washed again and biotin-labeled goat anti-rabbit IgG (1:1000, Sigma) was applied for 1 hour. The wells were washed 4 more times and incubated with streptavidin […] (SAAP) at a 1:2500 concentration. P-nitrophenyl phosphate (pNPP, Sigma) was used for color development according to the manufacturer's directions. The plate was read in a Titertek Mulitskan plate reader at 405 nm.
as §4

[5] = test system: TIMP-1; test: Reverse zymography for tissue inhibitors of metalloproteinases (TIMP-1); type: cell-based, human; conditions: PPS-treated cells; densitometry
Procedure: (§5) Tissue inhibitors of metalloproteinases (TIMPS) in the supernatant and the cell layer were assessed by reverse zymography. Briefly, gels were prepared containing gelatinase A. Medium was diluted to normalize for cell number as described in Example 2. Gels were washed for 1 hour in 2.5% SDS following electrophoresis and incubated overnight at 37° C. Coomasie Blue staining and air drying was performed as described in Example 2. Densitometry was performed using NIH image 1.6 to quantitate the TIMPS activity.

[6] = test system: MMP-9; test: Zymography for metalloproteinases in medium of PPS-treated cells (MMP-9); type: cell-based, human; conditions: PPS 100 μg/μl daily for 5 days; densitometry
Procedure: as §1, §2

[7] = test system: human prostate cells; test: Dose response / growth curves of prostatic smooth muscle cells in 20% FBS, cell counts by Coulter counter; type: cell-based
Procedure: Fragments from the nodular areas of prostatectomy specimens were obtained, cut into small pieces, and incubated in a collagenase solution (3 mg/ml) (Sigma Chemical Co., St. Louis, Mo.) overnight at 37° C. The following day, the digested fragments were resuspended in complete Waymouth's medium (Gibco) containing 20% fetal bovine serum (FBS), L-glutamine, penicillin (100 U/ml), streptomycin (100 μg/ml), and sodium bicarbonate. The digested fragments were then plated into 24-well plates (Nunc Nalge International, Naperville, Ill.) coated with human fibronectin (Collaborative Research). The fragments were left undisturbed in 95% […] and 5% CO2 until the first outgrowth was apparent (by day 7), at which time the cells appeared elongated and stellate and formed parallel arrays. The medium was changed twice a week until the cells reached confluence, at which time the cells were transferred into flasks. All experiments were performed on cells between passage 2 and 10, at which time the cells appeared to have a stable phenotype (i.e., monolayer growth with no morphological change and no hillock formation at confluence). Characterization was performed by staining for a smooth muscle cell actin (Sigma Chemical Co.) and F actin (Molecular Probes) in accordance with manufacturers' directions. All of the cells contained end to end actin filaments when stained with phalloidin. Such staining is characteristic of mesenchymal cells. Since the majority of the cells contained smooth muscle actin (see FIG. 1), the cells were considered to be smooth muscle cells
Dose response curves for the cells were generated by plating cells at 5,000 cells/well in 24-well plates (Nunc) in medium containing 20% FBS. After 36 hours, the medium was replaced with fresh 20% FBS containing medium and increasing concentrations of PPS (Elmiron®, Ivax Corp., Miami Fla.) were added. Cells were counted on days 1, 3 and 4 with a Coulter 7.1 cell counter (Coulter, Hialeah, Fla.). The addition of FBS stimulated cell proliferation. […] Cell number decreased 24 hours following treatment with PPS (10 or 100 μg/ml) (see FIG. 2). […]

[8] = test system: TIMP-2; test: Reverse zymography for tissue inhibitors of metalloproteinases (TIMP-2); type: cell-based, human; conditions: PPS-treated cells; barely detectable in the control medium
Procedure: as §5

[9] = biological target: T1, type II 5-alpha-reductase (Homo sapiens, UniProt P31213); conditions: Moore et al. 1995; cited from earlier work
T1 sequence (P31213 1-254): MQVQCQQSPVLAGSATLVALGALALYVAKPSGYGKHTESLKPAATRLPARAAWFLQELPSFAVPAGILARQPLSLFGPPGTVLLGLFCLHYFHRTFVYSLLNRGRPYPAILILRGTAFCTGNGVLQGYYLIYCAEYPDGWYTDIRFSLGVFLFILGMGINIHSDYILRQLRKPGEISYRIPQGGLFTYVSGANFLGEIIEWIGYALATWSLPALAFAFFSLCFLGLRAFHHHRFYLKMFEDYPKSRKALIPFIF

Molecule	MMP-2 levels, PPS-treated cells vs control cells [1]	Type IV collagen level ([2]; cell layer)	Type IV collagen level ([2]; medium)	Serious adverse effects (mainly gastrointestinal or alopecia) [3]	Type I collagen level relative to untreated control ([4]; cell layer)	Type I collagen level relative to untreated control ([4]; medium)	TIMP-1 levels increase as compared to control cells [5]	MMP-9 increase as compared to control cells [6]	Cell number ([7]; 24 hours following treatment with PPS (10 or 100 μg/ml), 20% FBS)	Cell death, as assessed by trypan blue staining ([7]; PPS 10 or 100 μg/ml)	Decrease in cell number ([7]; day 4 of treatment with 100 μg/ml PPS) [fold]	TIMP-2 expression in the medium [8]	Decrease in DHT [9] [%]	Prostate specific antigen [9]	Prostate volume reductions [9] [%]
pentosan polysulfate [PPS]	no significant differences	52.99%+/−7.556 % of controls	43.03%+/−4.029 % of controls	3.2 % of chronic users	66.91%+/−25.42 % of controls	29.97%+/−3.692 % of controls	203.5+/−50.31% of untreated control c	235.7+/−50.31% of untreated control c	decreased	not associated with cell death	3	expressed at high levels	–	–	–
CC(C)(C)NC(=O)[C@H]1CC[C@H]2[C@@H]3CC[C@H]4NC(=O)C=C[C@]4(C)[C@H]3CC[C@]12C [finasteride]	–	–	–	–	–	–	–	–	–	–	–	–	72	reduction	30
